Columns and labels:
[1] = system: Normal human dermal fibroblasts (NHDFs) seeded on collagen type 1 gels; experiment: Fibroblast-seeded collagen gel contraction; assay type: cell-based; settings: for % of original size (mean): 0.1 mg/ml lactoferrin, 0.1 mg/ml ICI 118 551, 1.0 mg/ml Isoproterenol, 3.5×10^4 cells per well
Experimental: Normal human dermal fibroblasts (NHDFs) were obtained by tissue donation following circumcision following patient informed consent. The tissue was rinsed in Phosphate Buffered Saline (PBS) and Pen/Strep and Amphotericin B (Pen/strep) at 10 ug/ml. The tissue was then minced to 1 mm2 sections and suspended in Trypsin-EDTA 1:250 at room temperature (RT) for 1 hr. The tissue was then washed twice by centrifugation at 2500 g for 3min in serum supplemented DMEM/F12. A single cell suspension was created using mechanical disaggregation. The cells were counted using a haemocytometer and cultured at 1×10^6 cells per T75 tissue culture flask in DMEM/F12 containing 10% Fetal Bovine Serum (FBS) and 10 ug/ml Pen/strep. Incubators were kept at 37° C. and 5% CO2. Medium was changed every 3-4 days and cells were used from the 4th passage in vitro.
Collagen gels were formed. A solution of collagen, consisting of 2 mg/ml type 1 bovine collagen from bovine Achilles tendon in 0.5M acetic acid, was made. This made up 80% of the gel. Another 10% was made up of 10×PBS and the remaining volume was made up of FBS. The pH of the entire solution was adjusted to 7.4 using NaOH. 400 μl of the solution was placed into each well of a 24 well plate. The gels were set at 37° C. for 1 hr. After ensuring that the gels were set properly, they were detached from the sides of the wells and exposed to 1 ml fully supplemented DMEM/F12 overnight to acclimatize. The complete gels were seeded with 3.5×10^4 cells per well and the test compounds were added at this point. The test compound were added as follows: 0.1 mg/ml lactoferrin, 0.1 mg/ml ICI 118 551, 1.0 mg/ml Isoproterenol. A cell only and no cell control were also incuded.
Photographs were taken from the same distance at 0, 3, 6, 12 and 24 hrs of exposure using a Canon Powershot A640 10MP camera. The photos were transferred to CorelDRAW X3 and the inside diameter of the well as well as the outer edge of the gel were measured using the circle tool. […] These two diameters were then converted to a percentage of the well diameter by the formula geloutside/wellinside×100=gelrelative. This value was then worked out the same way for each gel at every time period. The time period Ohrs taken to be 100% of gel size and each time period after that was compared to it as a relative percentage. The standard deviation was calculated based on the original relative percentage to the well.

[2] = system: Normal human dermal fibroblasts (NHDFs) seeded on collagen type 1 gels; experiment: Fibroblast-seeded collagen gel contraction; assay type: cell-based
fibroblasts = settings: concentration of 1 microM; cited from earlier work
NHDFs = experiment: Viability monitored visually for 6 days; assay type: cell-based, human
Experimental: Cytotoxicity was measured using the MTT assay on NHDFs. Human dermal cells were used as it approximates the intended use. No cytotoxicity was found. […] All other cells maintained their viability over the six day period.

[3] = 0 hrs (taken to be 100% of gel size)

With `Cc1ccc(OCC(O)C(C)NC(C)C)c2c1CCC2` (racemic) [ICI 118 551, erythro-dl-1-(7-methylindan-4-yloxy)-3-isopropylaminobutan-2-ol] the “% of original size (mean)” value [1, 3] was 100%, the “% of original size (mean)” value ([1]; 3 hrs) was 66.04% and the “% of original size (mean)” value ([1]; 6 hrs) was 53.8%. For the same compound, the “% of original size (mean)” value ([1]; 12 hrs) was 51.33%, the “% of original size (mean)” value ([1]; 24 hrs) was 51.86% and the “rate of gel contraction compared with Lactoferrin and cells only controls” value ([1]; over 24 hrs) was “contract the gels at a higher rate”. For the same compound, the “ideal concentration for gel contraction” value ([2]; dose response 0.01 mg/ml to 0.2 mg/ml, gel containing 3.5×10^4 cells) was 0.1 mg/mL, the “activity at lower concentrations (gel contraction)” value ([2]; dose response from 0.01 mg/ml, concentrations lower than 0.1 mg/ml) was “not be significantly active” and the “effect of higher concentrations on rate of contraction” value ([2]; dose response up to 0.2 mg/ml, concentrations higher than 0.1 mg/ml) was “did not seem to increase the rate of contraction significantly”. For the same compound, the “return of gels to original dimensions” value ([2]; monitored for a further 3 days) was “did not return to their original dimensions”.
In the case of “YTRVVWXA: peptide with the amino acid sequence YTRVVWXA (a fragment from Lactoferrin)”, the “collagen gel contraction by fibroblasts relative to control” value (fibroblasts) is given as “about three times control”.
In the case of `CC(C)NCC(O)c1ccc(O)c(O)c1` (centres unmarked) [Isoproterenol], the “% of original size (mean)” value [1, 3] is reported as 100%, the “% of original size (mean)” value ([1]; 3 hrs) is reported as 100.8622% and the “% of original size (mean)” value ([1]; 6 hrs) is reported as 79.6766%. The “% of original size (mean)” value ([1]; 12 hrs) was 82.7588%, the “% of original size (mean)” value ([1]; 24 hrs) was 83.79% and the viability monitored visually (NHDFs) was “started to lose viability”.
